This note sets out measurements from US20250066350A1, “AROMATIC HETEROCYCLE-SUBSTITUTED COMPOUNDS, AND PREPARATION METHOD THEREFOR AND USE THEREOF” (Innovstone Therapeutics Limited, priority 2021, published 2025).

Like-named read-outs stand apart in the source and are kept apart here.

For one assay, the system named is SNU-601 cells. The experiment in a line: SNU-601 cell proliferation experiment (CellTiter-Glo, intracellular ATP). It is filed as cell-based. The settings on record: SNU-601 human gastric cancer cells, 5 days, read-out: IC50 for inhibition of SNU-601 cell proliferation. The procedure: The following method is used to evaluate the inhibitory effect of the compounds of the present disclosure on SNU-601 cell proliferation according to the IC50 values by means of detecting the intracellular ATP content. The experimental method is briefly described as follows:
1. SNU-601, human gastric cancer tumor cells (Co-bioer, CBP60507)
SNU-601 cells were cultured in RPMI 1640 medium containing 10% FBS and passaged 2 to 3 times a week at a split ratio of 1:5 or 1:10. During passage, the cells were trypsinized and transferred to a centrifuge tube. The tube was centrifuged at 1000 rpm for 5 minutes, the supernatant medium was discarded, and fresh medium was added to resuspend the cells. 195 μL of cell suspension at a density of 5.128×10^3 cells/mL was added to a 96-well cell culture plate, and 200 μL of complete medium only was added to the periphery wells of the 96-well plate. The culture plate was incubated in an incubator for 24 hours (37° C., 5% CO2).
The sample to be tested was diluted to 2 mM with DMSO, diluted 3-fold serially to 10 concentrations. Blank and control wells were set. 10 μL of the solution containing the compound to be tested prepared in gradient concentrations was added to 50 μL of fresh medium. 5 μL of the above culture medium solution containing the compound was added to the culture plate. The culture plate was incubated in an incubator for 5 days (37° C., 5% CO2). 50 μL of CellTiter-Glo reagent was added to each well of the 96-well cell culture plate after discarding 100 μL/well, and the plate was shaken at room temperature in the dark for 10 min. The chemiluminescent signal values were read in PHERAstar, and data were processed using GraphPad software.
The inhibitory effect of the compounds of the present invention on SNU-601 cell proliferation can be determined by the test described above, and the measured IC50 values are shown in Table 3.

In another assay the target is ATR enzyme (Homo sapiens (Human), UniProt Q13535). Description: Inhibitory effect on ATR enzyme (HTRF, phospho-P53). It is filed as biochemical. Particulars: 90 minutes incubation, 150 nM ATP final; read-out: IC50 for ATR enzyme inhibition. The procedure:
Test Example 1. Inhibitory Effect of Compounds of the Present Invention on ATR Enzyme
The following method is used to determine the inhibitory effect of the compounds of the present invention on the ATR enzyme. The experimental method is briefly described as follows:
1. ATR enzyme (Eurofins Pharma Discovery Services, 14-953M)
2. GST-tagged P53 protein (Eurofins Pharma Discovery Services, 14-952M)
15 nM ATR enzyme, 80 nM P53 protein, 300 nM ATP (the final concentrations were 40 nM and 150 nM, respectively), and small molecule compounds of various concentrations (the final concentrations (nM) of the ten points were 2985.0, 895.5, 298.5, 110.56, 33.17, 11.06, 4.09, 1.23, 0.41 and 0.15, respectively, and the final dimethyl sulfoxide concentration was 0.498%) were mixed and incubated at room temperature for 90 minutes. 10 μL of 2× cocktail buffer was added to the mixture of ATR, compound and substrate in the assay plate (anti-phospho-p53-Eu and anti-GST-d2 were diluted in the assay buffer). The resulting mixture was centrifuged at 1000 rpm for 30 seconds, and incubated overnight at 4° C. in the dark (a total of 20 μl in each well). The FRET signal (endpoint) was measured in the Envision instrument (HTRF 665/612 ratio was calculated at 665 nm emission and 612 nm emission). Data were processed using GraphPad software.
The inhibitory activity of the compounds of the present invention on the ATR enzyme can be determined by the test described above, and the measured IC50 values are shown in Table 1.

ATR enzyme, sequence (Q13535 whole entry): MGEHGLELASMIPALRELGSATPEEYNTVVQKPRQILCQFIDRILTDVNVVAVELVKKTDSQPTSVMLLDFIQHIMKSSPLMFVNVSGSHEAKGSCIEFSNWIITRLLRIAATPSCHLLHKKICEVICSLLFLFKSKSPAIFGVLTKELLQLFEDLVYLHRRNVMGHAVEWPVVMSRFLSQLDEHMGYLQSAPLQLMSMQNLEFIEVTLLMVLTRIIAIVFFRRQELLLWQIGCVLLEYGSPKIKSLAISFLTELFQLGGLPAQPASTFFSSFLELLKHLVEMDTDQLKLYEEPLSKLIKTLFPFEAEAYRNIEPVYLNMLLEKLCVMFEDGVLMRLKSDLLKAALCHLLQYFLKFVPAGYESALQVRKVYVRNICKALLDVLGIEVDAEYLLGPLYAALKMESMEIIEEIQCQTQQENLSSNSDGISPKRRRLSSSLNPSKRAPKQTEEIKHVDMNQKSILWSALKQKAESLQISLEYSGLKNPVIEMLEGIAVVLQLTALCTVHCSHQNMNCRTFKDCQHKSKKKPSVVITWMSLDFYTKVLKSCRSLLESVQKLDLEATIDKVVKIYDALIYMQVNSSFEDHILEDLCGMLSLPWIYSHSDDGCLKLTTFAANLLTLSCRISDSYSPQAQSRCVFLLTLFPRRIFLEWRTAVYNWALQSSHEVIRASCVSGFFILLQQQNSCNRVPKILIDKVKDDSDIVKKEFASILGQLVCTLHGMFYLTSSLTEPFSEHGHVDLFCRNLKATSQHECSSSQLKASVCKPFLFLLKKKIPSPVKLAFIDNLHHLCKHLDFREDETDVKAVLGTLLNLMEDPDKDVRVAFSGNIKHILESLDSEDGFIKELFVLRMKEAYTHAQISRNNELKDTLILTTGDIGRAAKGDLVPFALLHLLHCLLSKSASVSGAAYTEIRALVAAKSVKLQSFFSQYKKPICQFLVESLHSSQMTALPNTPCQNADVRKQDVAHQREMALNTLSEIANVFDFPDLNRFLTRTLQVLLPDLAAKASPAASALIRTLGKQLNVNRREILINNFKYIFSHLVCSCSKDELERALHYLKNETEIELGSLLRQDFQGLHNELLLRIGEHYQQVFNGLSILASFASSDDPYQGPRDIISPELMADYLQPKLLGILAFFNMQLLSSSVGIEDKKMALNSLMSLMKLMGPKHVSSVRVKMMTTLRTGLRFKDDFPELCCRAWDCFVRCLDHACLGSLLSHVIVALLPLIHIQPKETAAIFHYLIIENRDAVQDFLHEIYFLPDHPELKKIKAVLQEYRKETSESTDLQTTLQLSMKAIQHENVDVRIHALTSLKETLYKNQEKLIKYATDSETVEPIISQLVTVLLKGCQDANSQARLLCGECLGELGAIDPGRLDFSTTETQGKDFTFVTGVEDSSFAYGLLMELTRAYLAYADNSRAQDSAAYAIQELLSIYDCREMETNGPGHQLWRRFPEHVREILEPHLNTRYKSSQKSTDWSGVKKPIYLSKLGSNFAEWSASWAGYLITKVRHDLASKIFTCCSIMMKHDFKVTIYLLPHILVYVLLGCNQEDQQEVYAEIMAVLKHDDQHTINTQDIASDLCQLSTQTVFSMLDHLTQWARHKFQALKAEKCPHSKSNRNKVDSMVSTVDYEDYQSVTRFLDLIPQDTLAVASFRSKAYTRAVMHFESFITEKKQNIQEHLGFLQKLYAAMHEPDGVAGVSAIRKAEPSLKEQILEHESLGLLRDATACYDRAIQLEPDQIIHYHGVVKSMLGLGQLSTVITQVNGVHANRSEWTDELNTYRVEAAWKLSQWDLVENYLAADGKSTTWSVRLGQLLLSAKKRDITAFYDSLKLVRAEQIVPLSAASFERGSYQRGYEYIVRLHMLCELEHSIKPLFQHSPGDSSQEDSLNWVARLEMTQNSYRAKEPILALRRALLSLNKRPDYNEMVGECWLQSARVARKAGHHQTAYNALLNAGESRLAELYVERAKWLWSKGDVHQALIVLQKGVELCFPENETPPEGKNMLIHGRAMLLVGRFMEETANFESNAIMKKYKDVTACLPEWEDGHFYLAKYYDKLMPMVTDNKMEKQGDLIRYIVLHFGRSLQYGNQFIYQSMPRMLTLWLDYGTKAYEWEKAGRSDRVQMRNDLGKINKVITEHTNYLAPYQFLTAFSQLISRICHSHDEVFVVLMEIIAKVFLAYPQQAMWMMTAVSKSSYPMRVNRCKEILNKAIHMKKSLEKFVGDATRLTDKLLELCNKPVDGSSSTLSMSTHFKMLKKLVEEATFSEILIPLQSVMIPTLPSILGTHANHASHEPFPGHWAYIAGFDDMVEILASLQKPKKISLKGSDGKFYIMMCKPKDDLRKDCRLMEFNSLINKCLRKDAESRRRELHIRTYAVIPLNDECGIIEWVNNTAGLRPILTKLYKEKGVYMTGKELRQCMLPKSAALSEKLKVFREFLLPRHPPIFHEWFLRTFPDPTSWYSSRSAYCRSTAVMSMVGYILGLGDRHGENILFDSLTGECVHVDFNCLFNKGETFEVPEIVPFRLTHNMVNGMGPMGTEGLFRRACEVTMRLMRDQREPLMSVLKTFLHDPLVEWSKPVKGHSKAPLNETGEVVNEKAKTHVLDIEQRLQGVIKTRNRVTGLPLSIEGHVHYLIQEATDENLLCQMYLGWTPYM
ATR enzyme, sequence (Q8WXE1 whole entry partner): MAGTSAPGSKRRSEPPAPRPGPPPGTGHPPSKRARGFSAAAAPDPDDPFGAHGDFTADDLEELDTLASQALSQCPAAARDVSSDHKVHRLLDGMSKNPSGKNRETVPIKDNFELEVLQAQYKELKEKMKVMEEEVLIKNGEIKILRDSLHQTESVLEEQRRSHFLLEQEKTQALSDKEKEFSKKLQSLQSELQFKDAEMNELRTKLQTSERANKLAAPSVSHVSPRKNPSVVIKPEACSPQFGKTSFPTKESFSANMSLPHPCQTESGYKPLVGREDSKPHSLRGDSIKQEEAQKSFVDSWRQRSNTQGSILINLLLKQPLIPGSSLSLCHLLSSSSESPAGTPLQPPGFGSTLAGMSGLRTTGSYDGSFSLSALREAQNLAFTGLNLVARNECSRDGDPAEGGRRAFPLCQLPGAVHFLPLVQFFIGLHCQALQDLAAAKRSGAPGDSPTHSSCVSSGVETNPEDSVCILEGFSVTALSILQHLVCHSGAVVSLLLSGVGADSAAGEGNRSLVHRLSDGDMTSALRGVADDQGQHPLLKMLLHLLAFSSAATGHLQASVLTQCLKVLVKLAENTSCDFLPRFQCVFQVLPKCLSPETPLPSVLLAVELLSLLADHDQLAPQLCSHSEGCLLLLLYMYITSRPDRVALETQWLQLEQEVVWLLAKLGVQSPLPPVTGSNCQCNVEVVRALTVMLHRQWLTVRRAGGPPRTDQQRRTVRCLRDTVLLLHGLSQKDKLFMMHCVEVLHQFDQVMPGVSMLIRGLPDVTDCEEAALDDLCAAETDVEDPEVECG

Take `CC(=O)Nc1ccc(-c2cc(N3CCOC[C@H]3C)nc3c2cnn3-c2cc[nH]n2)cc1` [Example 30, (R)-N-(4-(6-(3-methylmorpholinyl)-1-(1H-pyrazolyl-3-yl)-1H-pyrazolyl[3,4-b]pyridin-4-yl)phenyl)acetamide]: the IC50 in the assay with SNU-601 cells (120 h) was 10 to 100 nM; at ATR enzyme, at most 10 nM.
In the case of `CC(=O)C(=O)Nc1ccc(-c2cc(N3CCOC[C@H]3C)nc3c2cnn3-c2cc[nH]n2)cc1` [Example 31, (R)-N-(4-(6-(3-methylmorpholino)-1-(1H-pyrazol-3-yl)-1H-pyrazolo[3,4-b]pyridin-4-yl)phenyl)-2-oxopropanamide], the IC50 in the assay on SNU-601 cells (120 h) is 10 to 100 nM; at ATR enzyme, at most 10 nM.
In the same order, the values of `C[C@@H]1COCCN1c1cc(-c2ccc(NC(=O)C3CCC3)cc2)c2cnn(-c3cc[nH]n3)c2n1` [Example 32, (R)-N-(4-(6-(3-methylmorpholinyl)-1-(1H-pyrazolyl-3-yl)-1H-pyrazolyl[3,4-b]pyridin-4-yl)phenyl)cyclobutanecarboxamide] are 10 to 100 nM and at most 10 nM.
For `C[C@@H]1COCCN1c1cc(-c2ccc(NC(=O)NC3CC3)cc2)c2cnn(-c3cc[nH]n3)c2n1` [Example 33, (R)-1-cyclopropyl-3-(4-(6-(3-methylmorpholinyl)-1-(1H-pyrazolyl-3-yl)-1H-pyrazolyl[3,4-b]pyridin-4-yl)phenyl)urea], in that order: 10 to 100 nM and at most 10 nM.
Consider `C[C@@H]1COCCN1c1cc(-c2cccc(N3CCCC3=O)c2)c2cnn(-c3cc[nH]n3)c2n1` [Example 58], for which the IC50 is 10 to 100 nM with SNU-601 cells and at most 10 nM on ATR enzyme.
With `C[C@@H]1COCCN1c1cc(-c2ccc(N3CCCC3=O)cc2F)c2cnn(-c3cc[nH]n3)c2n1` [Example 59, (R)-1-(3-fluoro-4-(6-(3-methylmorpholino)-1-(1H-pyrazol-3-yl)-1H-pyrazolo[3,4-b]pyridin-4-yl)phenyl)pyrrolidin-2-one], the IC50 in the assay with SNU-601 cells (120 h) and at ATR enzyme was at most 10 nM each time.
As for `C[C@@H]1COCCN1c1cc(-c2ccc(N3CCCN(C)C3=O)cc2)c2cnn(-c3cc[nH]n3)c2n1` [Example 62], the IC50 in the assay with SNU-601 cells is 10 to 100 nM; on ATR enzyme, at most 10 nM.
`C[C@@H]1COCCN1c1cc(-c2ccc(N3CCCNC3=O)cc2)c2cnn(-c3cc[nH]n3)c2n1` [Example 146]: the IC50 is 10 to 100 nM in the assay on SNU-601 cells and at most 10 nM at ATR enzyme.
For `CC(=O)Nc1cccc(-c2cc(N3CCOC[C@H]3C)nc3c2cnn3-c2cc[nH]n2)c1` [Example 149], the IC50 with SNU-601 cells (120 h) is 10 to 100 nM; on ATR enzyme it was at most 10 nM.
Take `CCC(=O)Nc1ccc(-c2cc(N3CCOC[C@H]3C)nc3c2cnn3-c2cc[nH]n2)cc1` [Example 150]: the IC50 is 10 to 100 nM with SNU-601 cells and at most 10 nM at ATR enzyme.
On to `C[C@@H]1COCCN1c1cc(-c2ccc(NC(=O)C3CCOC3)cc2)c2cnn(-c3cc[nH]n3)c2n1` (some centres unmarked) [Example 154], for which the IC50 was 10 to 100 nM with SNU-601 cells and at most 10 nM at ATR enzyme.
In the same order, the values of `C[C@@H]1COCCN1c1cc(-c2ccc(NC(=O)C3CC(N)C3)cc2)c2cnn(-c3cc[nH]n3)c2n1` (some centres unmarked) [Example 158] are 10 to 100 nM and at most 10 nM.
For `C[C@@H]1COCCN1c1cc(-c2ccc(NC(=O)C3CC(O)C3)cc2)c2cnn(-c3cc[nH]n3)c2n1` (some centres unmarked) [Example 160], in that order: 10 to 100 nM and at most 10 nM.
In the same order, the values of `CC(=O)N1CCCC(C(=O)Nc2ccc(-c3cc(N4CCOC[C@H]4C)nc4c3cnn4-c3cc[nH]n3)cc2)C1` (some centres unmarked) [Example 162] are 10 to 100 nM and at most 10 nM.
In the case of `Cc1cc(N2CCCCC2=O)ccc1-c1cc(N2CCOC[C@H]2C)nc2c1cnn2-c1cc[nH]n1` [Example 168], the IC50 is 10 to 100 nM in the assay on SNU-601 cells and at most 10 nM on ATR enzyme.
On to `C[C@@H]1COCCN1c1cc(-c2ccc(N3CCCCC3=O)c(C#N)c2)c2cnn(-c3cc[nH]n3)c2n1` [Example 169], for which the IC50 with SNU-601 cells (120 h) lay within 10 to 100 nM.
As to `C[C@@H]1COCCN1c1cc(-c2ccc(NC(=O)c3cccs3)cc2)c2cnn(-c3cc[nH]n3)c2n1` [Example 172], the figures for the IC50 in the assay with SNU-601 cells and on ATR enzyme were 10 to 100 nM and at most 10 nM, respectively.
Take `C[C@@H]1COCCN1c1cc(-c2ccc3c(c2)CCN3C(=O)c2ccncc2)c2cnn(-c3cc[nH]n3)c2n1` [Example 183]: the IC50 in the assay with SNU-601 cells (120 h) is 10 to 100 nM.
Consider `C[C@@H]1COCCN1c1cc(-c2ccc(N3CCCCC3=O)c(F)c2)c2cnn(-c3cc[nH]n3)c2n1` [Example 191], for which the IC50 in the assay on SNU-601 cells (120 h) was 10 to 100 nM.
Still for that read-out and setting: the value for `C[C@@H]1COCCN1c1cc(-c2ccc(NC(=O)c3cccnc3)cc2F)c2cnn(-c3cc[nH]n3)c2n1` [Example 195] was 10 to 100 nM.
The same measure, in the same setting: the value for `C[C@@H]1COCCN1c1cc(-c2ccc(N3CC4CCC(O4)C3=O)cc2F)c2cnn(-c3cc[nH]n3)c2n1` (some centres unmarked) [Example 199] was 10 to 100 nM.
`C[C@@H]1COCCN1c1cc(-c2ccc(N3CC4CCC(O4)C3=O)c(F)c2)c2cnn(-c3cc[nH]n3)c2n1` (stereo partly drawn) [Example 200, 3-(2-fluoro-4-(6-((R)-3-methylmorpholino)-1-(1H-pyrazol-3-yl)-1H-pyrazolo[3,4-b]pyridin-4-yl)phenyl)-8-oxa-3-azabicyclo[3.2.1]octan-2-one]: the IC50 in the assay on SNU-601 cells (120 h) was 10 to 100 nM; on ATR enzyme, at most 10 nM.
Regarding `C[C@@H]1COCCN1c1cc(-c2ccc(NC(=O)N3CCCC3)cc2)c2cnn(-c3cc[nH]n3)c2n1` [Example 207], the IC50 in the assay on SNU-601 cells (120 h) lay within 10 to 100 nM.
As for `C[C@@H]1COCCN1c1cc(C2(C#N)CCN(c3cccc(F)c3)CC2)c2cnn(-c3cc[nH]n3)c2n1` [Example 208], the IC50 in the assay with SNU-601 cells is 10 to 100 nM; at ATR enzyme, at most 10 nM.
For the compound `C[C@@H]1COCCN1c1cc(C#CC2CCCNC2)c2cnn(-c3ccn[nH]3)c2n1` (some centres unmarked) [Example 209], in the assay with SNU-601 cells (120 h), the IC50 lay in the range of 10 to 100 nM.
Same read-out and setting: the value for `C[C@@H]1COCCN1c1cc(-c2ccc(NC(=O)C3CCN(C)C3)cc2)c2cnn(-c3cc[nH]n3)c2n1` (some centres unmarked) [Example 213] was 10 to 100 nM.
For `C[C@@H]1COCCN1c1cc(-c2ccc(NC(=O)c3cccnc3)cc2)c2cnn(-c3cc[nH]n3)c2n1` [Example 214], the IC50 with SNU-601 cells was 10 to 100 nM; on ATR enzyme, at most 10 nM.
As for `CNC(=O)N(C)c1ccc(-c2cc(N3CCOC[C@H]3C)nc3c2cnn3-c2cc[nH]n2)cc1` [Example 215], the IC50 in the assay on SNU-601 cells (120 h) lay in the range of 10 to 100 nM.
Take `CCN1CCN(c2ccc(-c3cc(N4CCOC[C@H]4C)nc4c3cnn4-c3cc[nH]n3)cc2)C1=O` [Example 216]: the IC50 is 10 to 100 nM in the assay on SNU-601 cells and at most 10 nM on ATR enzyme.
Take `C[C@@H]1COCCN1c1cc(-c2ccc(NC(=O)C(F)F)cc2)c2cnn(-c3cc[nH]n3)c2n1` [Example 217]: in the assay with SNU-601 cells (120 h), the IC50 lay in the range of 10 to 100 nM.
`C[C@@H]1COCCN1c1cc(-c2ccc(NC(=O)C3CC3)cc2)c2cnn(-c3cc[nH]n3)c2n1` [Example 218]: the IC50 in the assay on SNU-601 cells (120 h) was 10 to 100 nM; at ATR enzyme, at most 10 nM.
With `C[C@@H]1COCCN1c1cc(-c2ccc(NC(=O)N3CCNCC3)cc2)c2cnn(-c3cc[nH]n3)c2n1` [Example 219], the IC50 is 10 to 100 nM with SNU-601 cells (120 h) and at most 10 nM at ATR enzyme.
Take `CCn1ccn(-c2ccc(-c3cc(N4CCOC[C@H]4C)nc4c3cnn4-c3cc[nH]n3)cc2)c1=O` [Example 222]: the IC50 in the assay on SNU-601 cells (120 h) was 10 to 100 nM; on ATR enzyme it was at most 10 nM.
With `C[C@@H]1COCCN1c1cc(-c2ccc(N3CCCCC3=O)cc2C(F)(F)F)c2cnn(-c3cc[nH]n3)c2n1` [Example 242], the IC50 in the assay with SNU-601 cells (120 h) lay within 10 to 100 nM.
Same read-out and setting: as for `C[C@@H]1COCCN1c1cc(-c2ccc(-c3ccnn3C)cc2F)c2cnn(-c3cc[nH]n3)c2n1` [Example 258], the figure is 10 to 100 nM; as for `C[C@@H]1COCCN1c1cc(-c2cc(C#N)c(N3CCCCC3=O)cc2F)c2cnn(-c3cc[nH]n3)c2n1` [Example 259], 10 to 100 nM.
